For 8 compounds, MIC results are on record in PMC6063448, “Antimicrobial activity of linear lipopeptides derived from BP100 towards plant pathogens” (PLoS ONE, 2018).

What all share (type): cell-based
Assay [1] deals with Erwinia amylovora PMV6076. The assay can be described thus: MIC, growth inhibition in microtiter plates (TSB). Conditions: Ea, 25°C, 48 h, OD 600 nm, lowest concentration with no growth, given as interval of tested concentrations, three replicates, experiment repeated twice. From the text:
(§1) The following plant pathogenic bacterial strains were used: Erwinia amylovora PMV6076 (Institut National de la Recherche Agronomique, Angers, France), Pseudomonas syringae pv. syringae EPS94 (Institut de Tecnologia Agroalimentària, Universitat de Girona, Spain), Xanthomonas axonopodis pv. vesicatoria 2133–2, Pseudomonas syringae pv. actinidiae Psa3700.1.1, Xanthomonas fragariae Xf349-9A (Instituto Valenciano de Investigaciones Agrarias, Valencia, Spain), and Xanthomonas arboricola pv. pruni CFBP5563 (Collection Française de Bactéries associées aux Plantes, Angers, France). All bacteria except for X. fragariae were stored in Luria Bertani (LB) broth supplemented with glycerol (20%) and maintained at -80°C. For X. fragariae, Medium B [46] was used instead of LB. E. amylovora, X. arboricola pv. pruni, P. syringae pv. syringae and P. syringae pv. actinidiae were scrapped from the agar media after growing for 24 h at 25°C, and X. axonopodis pv. vesicatoria and X. fragariae after growing for 48 h at 25°C. The cell material was suspended in sterile water to obtain a suspension of 10^8 CFU mL^-1.
(§2) Lyophilized peptides were solubilized in sterile Milli-Q water to a final concentration of 1 mM and filter sterilized through a 0.22-μm pore filter. […] For antibacterial activity 20 μL of each dilution were mixed in a microtiter plate well with 20 μL of the corresponding suspension of the bacterial indicator, 160 μL of Trypticase Soy Broth (TSB) (BioMèrieux, France) to a total volume of 200 μL. For antifungal activity 20 μL of each stock solution were mixed in a microtiter plate well with 80 μL of the corresponding suspension of the fungal pathogen and 100 μL of double concentrated Potato Dextrose Broth (PDB) to a total volume of 200 μL containing 0.003% w/v of chloramphenicol to prevent bacterial contamination.
(§3) Three replicates for each combination of strain, compound and concentration were used. Microbial growth was determined by optical density measurement at 600 nm (Bioscreen C, Labsystem, Helsinki, Finland). For antibacterial activity microplates were incubated at 25°C with 20 s shaking before hourly absorbance measurement for 48 h. For antifungal activity microplates were incubated at 22°C with 1 min shaking before absorbance measurement that were done every two hours during seven days. The experiment was repeated twice. The MIC was taken as the lowest compound concentration with no growth at the end of the experiment.

Assay [2] deals with Pseudomonas syringae pv. actinidiae Psa3700.1.1. In words: MIC, growth inhibition in microtiter plates (TSB). As to conditions: Psa, 25°C, 48 h, OD 600 nm, lowest concentration with no growth, given as interval of tested concentrations, three replicates, experiment repeated twice.
Excerpt: as §1, §2, §3

Assay [3] has as its system Pseudomonas syringae pv. syringae EPS94. In words: MIC, growth inhibition in microtiter plates (TSB). Conditions: Pss, 25°C, 48 h, OD 600 nm, lowest concentration with no growth, given as interval of tested concentrations, three replicates, experiment repeated twice.
Excerpt: as §1, §2, §3

For assay [4], the system named is Xanthomonas arboricola pv. pruni CFBP5563. In words: MIC, growth inhibition in microtiter plates (TSB). Conditions: Xap, 25°C, 48 h, OD 600 nm, lowest concentration with no growth, given as interval of tested concentrations, three replicates, experiment repeated twice.
Excerpt: as §1, §2, §3

Assay [5] has as its system Xanthomonas axonopodis pv. vesicatoria 2133–2. In words: MIC, growth inhibition in microtiter plates (TSB). Conditions: Xav, 25°C, 48 h, OD 600 nm, lowest concentration with no growth, given as interval of tested concentrations, three replicates, experiment repeated twice.
Excerpt: as §1, §2, §3

Assay [6] has as its system Xanthomonas fragariae Xf349-9A. In words: MIC, growth inhibition in microtiter plates (TSB). As to conditions: Xf, 25°C, 48 h, OD 600 nm, lowest concentration with no growth, given as interval of tested concentrations, three replicates, experiment repeated twice.
Excerpt: as §1, §2, §3

Assay [7] concerns Fusarium oxysporum f. sp. lycopersici FOL 3 race 2. The assay can be described thus: MIC, antifungal growth inhibition in microtiter plates (PDB). Conditions: Fo, 22°C, seven days, OD 600 nm, lowest concentration with no growth, given as interval of tested concentrations, three replicates, experiment repeated twice. As to the method: (§4) The following plant pathogenic fungal strains were used: Penicillium expansum EPS26 (Institut de Tecnologia Agroalimentària, Universitat de Girona, Spain) and Fusarium oxysporum f. sp. lycopersici FOL 3 race 2 (ATCC 201829, American Type Culture Collection,Virginia, EEUU). Strains were cultured on potato dextrose agar (PDA) plates (Difco). Conidia from P. expansum and microconidia from F. oxysporum were obtained from 5–7 day-old agar Potato Dextrose (PDA) cultures after growth at 25°C. Inoculum was prepared by scraping spore material from culture surfaces with a cotton swab and resuspending it in distilled water containing 0.5‰ of tween 80. The suspensions were filtered through Miracloth (Merk, Millipore) and the concentration of conidia was determined using a hemacytometer and adjusted to 10^4 conidia mL^-1 for F. oxysporum and to 10^3 conidia mL^-1 for P. expansum.
as §2, §3

The subject of assay [8] is Penicillium expansum EPS26. The assay is described as above. Conditions: Pe, 22°C, seven days, OD 600 nm, lowest concentration with no growth, given as interval of tested concentrations, three replicates, experiment repeated twice. Here is the method: as §4, §2, §3

Consider `CCCCCC(=O)NCCCC[C@H](NC(=O)[C@H](CCCCN)NC(C)=O)C(=O)N[C@@H](CC(C)C)C(=O)N[C@@H](Cc1ccccc1)C(=O)N[C@@H](CCCCN)C(=O)N[C@@H](CCCCN)C(=O)N[C@H](C(=O)N[C@@H](CC(C)C)C(=O)N[C@@H](CCCCN)C(=O)N[C@@H](Cc1ccc(O)cc1)C(=O)N[C@@H](CC(C)C)C(N)=O)[C@@H](C)CC` [BP369, Ac-KK(COC5H11)LFKKILKYL-NH2], for which the MIC was 6.2 to 12.5 µM in assay [1]; 3.1 to 6.2 µM in assay [2]; 6.2 to 12.5 µM in assay [3]; 0.8 to 1.6 µM in assay [4]; 3.1 to 6.2 µM in assay [5]; 3.1 to 6.2 µM in assay [6]. In addition, the MIC was 0.4 to 0.8 µM in assay [7] and 1.6 to 3.1 µM in assay [8].

As for `CCCCCC(=O)NCCCC[C@H](NC(=O)[C@H](Cc1ccccc1)NC(=O)[C@H](CC(C)C)NC(=O)[C@H](CCCCN)NC(=O)[C@H](CCCCN)NC(C)=O)C(=O)N[C@@H](CCCCN)C(=O)N[C@H](C(=O)N[C@@H](CC(C)C)C(=O)N[C@@H](CCCCN)C(=O)N[C@@H](Cc1ccc(O)cc1)C(=O)N[C@@H](CC(C)C)C(N)=O)[C@@H](C)CC` [BP372, Ac-KKLFK(COC5H11)KILKYL-NH2], the MIC in assay [1] was 6.2 to 12.5 µM; in assay [2], 6.2 to 12.5 µM; in assay [3], 6.2 to 12.5 µM; in assay [4] it was 3.1 to 6.2 µM; in assay [5] it was 6.2 to 12.5 µM; in assay [6] it was 3.1 to 6.2 µM. Moreover, the MIC is 0.8 to 1.6 µM in assay [7] and 6.2 to 12.5 µM in assay [8].

Consider `CCCCCC(=O)NCCCC[C@H](NC(=O)[C@H](CCCCN)NC(=O)[C@H](Cc1ccccc1)NC(=O)[C@H](CC(C)C)NC(=O)[C@H](CCCCN)NC(=O)[C@H](CCCCN)NC(C)=O)C(=O)N[C@H](C(=O)N[C@@H](CC(C)C)C(=O)N[C@@H](CCCCN)C(=O)N[C@@H](Cc1ccc(O)cc1)C(=O)N[C@@H](CC(C)C)C(N)=O)[C@@H](C)CC` [BP373, Ac-KKLFKK(COC5H11)ILKYL-NH2], for which the MIC in assay [1] is 3.1 to 6.2 µM; in assay [2], 3.1 to 6.2 µM; in assay [3], 6.2 to 12.5 µM; in assay [4] it was 3.1 to 6.2 µM; in assay [5] it was 6.2 to 12.5 µM; in assay [6], 3.1 to 6.2 µM. The MIC in assay [7] is 0.4 to 0.8 µM; in assay [8] it was 3.1 to 6.2 µM.

As for `CCCCCC(=O)NCCCC[C@H](NC(=O)[C@@H](NC(=O)[C@H](CCCCN)NC(=O)[C@H](CCCCN)NC(=O)[C@H](Cc1ccccc1)NC(=O)[C@H](CC(C)C)NC(=O)[C@H](CCCCN)NC(=O)[C@H](CCCCN)NC(C)=O)[C@@H](C)CC)C(=O)N[C@@H](CCCCN)C(=O)N[C@@H](Cc1ccc(O)cc1)C(=O)N[C@@H](CC(C)C)C(N)=O` [BP375, Ac-KKLFKKIK(COC5H11)KYL-NH2], the MIC in assay [1] was in the range of 3.1 to 6.2 µM; in assay [2], 3.1 to 6.2 µM; in assay [3], 3.1 to 6.2 µM; in assay [4], 3.1 to 6.2 µM; in assay [5], 6.2 to 12.5 µM; in assay [6], 3.1 to 6.2 µM. Further, the results for the minimum inhibitory concentration (MIC) in assay [7] and in assay [8] were 0.4 to 0.8 µM and 3.1 to 6.2 µM, respectively.

For the compound `CCCCCC(=O)NCCCC[C@H](NC(=O)[C@H](CC(C)C)NC(=O)[C@@H](NC(=O)[C@H](CCCCN)NC(=O)[C@H](CCCCN)NC(=O)[C@H](Cc1ccccc1)NC(=O)[C@H](CC(C)C)NC(=O)[C@H](CCCCN)NC(=O)[C@H](CCCCN)NC(C)=O)[C@@H](C)CC)C(=O)N[C@@H](Cc1ccc(O)cc1)C(=O)N[C@@H](CC(C)C)C(N)=O` [BP376, Ac-KKLFKKILK(COC5H11)YL-NH2], the minimal inhibitory concentration (MIC) in assay [1] fell in the range of 6.2 to 12.5 µM; in assay [2], 3.1 to 6.2 µM; in assay [3], 12.5 to 25 µM; in assay [4], 6.2 to 12.5 µM; in assay [5] it was 6.2 to 12.5 µM; in assay [6], 3.1 to 6.2 µM. Further, the values for the minimal inhibitory concentration (MIC) in assay [7] and in assay [8] were 0.4 to 0.8 µM and 3.1 to 6.2 µM, respectively.

For the compound `CCCCCC(=O)NCCCC[C@H](NC(=O)[C@H](CCCCN)NC(=O)[C@H](CC(C)C)NC(=O)[C@@H](NC(=O)[C@H](CCCCN)NC(=O)[C@H](CCCCN)NC(=O)[C@H](Cc1ccccc1)NC(=O)[C@H](CC(C)C)NC(=O)[C@H](CCCCN)NC(=O)[C@H](CCCCN)NC(C)=O)[C@@H](C)CC)C(=O)N[C@@H](CC(C)C)C(N)=O` [BP377, Ac-KKLFKKILKK(COC5H11)L-NH2], the minimal inhibitory concentration (MIC) in assay [1] is 3.1 to 6.2 µM; in assay [2] it was 3.1 to 6.2 µM; in assay [3], 3.1 to 6.2 µM; in assay [4] it was 3.1 to 6.2 µM; in assay [5] it was 6.2 to 12.5 µM; in assay [6], 3.1 to 6.2 µM. Further, the MIC is 0.8 to 1.6 µM in assay [7] and 3.1 to 6.2 µM in assay [8].

As for `CCCC(=O)N[C@@H](CCCCN)C(=O)N[C@@H](CCCCN)C(=O)N[C@@H](CC(C)C)C(=O)N[C@@H](Cc1ccccc1)C(=O)N[C@@H](CCCCN)C(=O)N[C@@H](CCCCN)C(=O)N[C@H](C(=O)N[C@@H](CC(C)C)C(=O)N[C@@H](CCCCN)C(=O)N[C@@H](Cc1ccc(O)cc1)C(=O)N[C@@H](CC(C)C)C(N)=O)[C@@H](C)CC` [BP379, C3H7CO-KKLFKKILKYL-NH2], the minimal inhibitory concentration (MIC) in assay [1], in assay [2], in assay [3], in assay [4], in assay [5] and in assay [6] was 3.1 to 6.2 µM in each case. Moreover, the values for the MIC in assay [7] and in assay [8] were 3.1 to 6.2 µM and 6.2 to 12.5 µM, respectively.

With `CCCC(=O)NCCCC[C@H](NC(C)=O)C(=O)N[C@@H](CCCCN)C(=O)N[C@@H](CC(C)C)C(=O)N[C@@H](Cc1ccccc1)C(=O)N[C@@H](CCCCN)C(=O)N[C@@H](CCCCN)C(=O)N[C@H](C(=O)N[C@@H](CC(C)C)C(=O)N[C@@H](CCCCN)C(=O)N[C@@H](Cc1ccc(O)cc1)C(=O)N[C@@H](CC(C)C)C(N)=O)[C@@H](C)CC` [BP380, Ac-K(COC3H7)KLFKKILKYL-NH2], the minimum inhibitory concentration (MIC) in assay [1] fell in the range of 3.1 to 6.2 µM; in assay [2] it was 6.2 to 12.5 µM; in assay [3], 6.2 to 12.5 µM; in assay [4], 3.1 to 6.2 µM; in assay [5], 3.1 to 6.2 µM; in assay [6] it was 3.1 to 6.2 µM. Moreover, the MIC lay in the range of 0.8 to 1.6 µM in assay [7] and 3.1 to 6.2 µM in assay [8].

A word on the MIC: it is the least concentration at which growth counts as inhibited.
